Data taken from patent US20020013306A1, “TERPYRIDINE-PLATINUM(II) COMPLEXES” (priority 1996, published 2002).
pIC50: −log10 of the molar value. Values joined by “and” are separate entries in the source; they are usually repeats but may differ in a detail not shown here. Equal entries are not always repeated. Where two headings read alike, the source gives them in different places.

Columns and labels:
[1] = system: CH1dox^R human ovarian carcinoma cell line (doxorubicin resistant); experiment: 96 h growth inhibition, sulforhodamine B assay, CH1doxR; format: cell-based; settings: for pIC50: 96 h exposure, growth inhibition; for RF resistance factor: IC50 resistant line/IC50 parent line: CH1dox^R / CH1
[2] = system: A2780 human ovarian carcinoma cell line; experiment: 96 h growth inhibition, sulforhodamine B assay, A2780; format: cell-based; settings: 96 h exposure, v = variable (mean)
[3] = system: CH1 human ovarian carcinoma cell line; experiment: 96 h growth inhibition, sulforhodamine B assay, CH1; format: cell-based; settings: 96 h exposure, v = variable (mean)
[4] = system: SKOV3 human ovarian carcinoma cell line; experiment: 96 h growth inhibition, sulforhodamine B assay, SKOV3; format: cell-based; settings: 96 h exposure, v = variable (mean)
calf-thymus (ct)-DNA = settings: literature [1]-[3]; cited from earlier work
[5] = system: T. brucei (S427) bloodstream trypomastigotes; experiment: Trypanosoma brucei bloodstream trypomastigote culture; format: cell-based
[6] = system: CH1cis^R human ovarian carcinoma cell line (cisplatin resistant); experiment: 96 h growth inhibition, sulforhodamine B assay, CH1cisR; format: cell-based; settings: for pIC50: 96 h exposure, growth inhibition, v = variable (mean); for RF resistance factor: IC50 resistant line/IC50 parent line: CH1cis^R / CH1
T. cruzi (MHOM/BR/00/Y) = experiment: Trypanosoma cruzi in mouse peritoneal macrophages; format: cell-based
Protocol: Trypanosoma cruzi: […] Drug activity was determined from the % of infected macrophages in treated cultures. Nifurtimox was used as the positive control.

[7] = system: A2780cis^R human ovarian carcinoma cell line (cisplatin resistant); experiment: 96 h growth inhibition, sulforhodamine B assay, A2780cisR; format: cell-based; settings: for pIC50: 96 h exposure, growth inhibition, v = variable (mean); for RF resistance factor: IC50 resistant line/IC50 parent line: A2780cis^R / A2780
[8] = system: P falciparum (chloroquin resistant strain K1); experiment: In vitro antimalarial activity, chloroquine resistant K1; settings: for % Inhibition (compound duplicates), K1 P. falciparum: duplicates (1),(2)
Protocol: Plasmodium falciparum: P falciparum (chloroquin resistant strain K1) was cultured at 37° C. in a 5% suspension of infected so erythrocytes (group A Rh^+) in complete medium as described by E L Elueze, S L Croft and D C Warhurst, J Antimicrobial Chemotherapy, 1996, 37, 511-518. The in vitro antimalarial activity of compounds were likewise determined according to their protocol. Mefloquin was used as the positive control.”

[9] = read-out: IC50 (avg), K1 P. falciparum, average of duplicates

Molecule | pIC50 [1] | RF resistance factor: IC50 resistant line/IC50 parent line [1] | pIC50 [2] | pIC50 [3] | pIC50 [4] | binding association constant with ct-DNA (calf-thymus (ct)-DNA) | % Inhibition, Trypanosoma brucei ([5]; 0.1 μM) | % Inhibition, Trypanosoma brucei ([5]; 0.3 μM) | % Inhibition, Trypanosoma brucei ([5]; 1 μM) | % Inhibition, Trypanosoma brucei ([5]; 3 μM) | % Inhibition, Trypanosoma brucei ([5]; 10 μM) | % Inhibition, Trypanosoma brucei ([5]; 30 μM) | pIC50 [6] | RF resistance factor: IC50 resistant line/IC50 parent line [6] | % Inhibition, Trypanosoma cruzi (T. cruzi (MHOM/BR/00/Y); 1 μM) | % Inhibition, Trypanosoma cruzi (T. cruzi (MHOM/BR/00/Y); 3 μM) | % Inhibition, Trypanosoma cruzi (T. cruzi (MHOM/BR/00/Y); 10 μM) | % Inhibition, Trypanosoma cruzi (T. cruzi (MHOM/BR/00/Y); 30 μM) | pIC50 [7] | RF resistance factor: IC50 resistant line/IC50 parent line [7] | also measured
[Cl-].[Cl-].[Pt+2].c1ccc(-c2cccc(-c3ccccn3)n2)nc1 [Compound A13, chloro(2,2′:6′,2″-terpyridine)platinum(II) chloride] | 5.43 | 0.6 | 4.31 | 5.18 | 4.71 | essentially the same binding constant | 26.2% | 100% | 100% | 100% | 100% | 100% | 5.19 | 1 | 52.0% | 76.0% | 99.0% | 99.3% | 4.39 | 0.8 | –
Cc1cc[n+]([Pt-2]23[n+]4ccccc4-c4cc(Cl)cc([n+]42)-c2cccc[n+]23)cc1.F[B-](F)(F)F.F[B-](F)(F)F [I] | 6.37 | 0.07 | 4.84 | 5.20 | 5.25 | – | 99.2% | 83.8% | 100% | 100% | 100% | 100% | 5.19 | 1 | 59.7% | 73.5% | 97.0% | 100% | 4.84 | 1 | % Inhibition (compound duplicates), K1 P. falciparum ([8]; Concn. 15 μM): 14.2% and 9.4%; % Inhibition (compound duplicates), K1 P. falciparum ([8]; Concn. 30 μM): 93.2% and 90.9%; % Inhibition (compound duplicates), K1 P. falciparum ([8]; Concn. 75 μM): 1.9% and 2.1%; % Inhibition (compound duplicates), K1 P. falciparum ([8]; Concn. 375 μM): 0%; % Inhibition (compound duplicates), K1 P. falciparum ([8]; Concn. 1875 μM): 0%; % Inhibition (compound duplicates), K1 P. falciparum ([8]; Concn. 09375 μM): 0%; % Inhibition (compound duplicates), K1 P. falciparum ([8]; Concn. 046875 μM): 0%; % Inhibition (compound duplicates), K1 P. falciparum ([8]; Concn. 0234375 μM): 0%; pIC50 [8, 9]: 4.69; pIC50 ([8]; read-out: IC50, K1 P. falciparum, each duplicate (1),(2)): 4.70 and 4.67
Cc1cc[n+]([Pt-2]23[n+]4ccccc4-c4cc(-c5ccc(Br)cc5)cc([n+]42)-c2cccc[n+]23)cc1.F[B-](F)(F)F.F[B-](F)(F)F [Q] | 5.98 | 0.2 | 4.41 | 5.30 | < 4.00 | – | 0% | 100% | 100% | 100% | 100% | 100% | 5.24 | 1.2 | – | – | – | – | 4.53 | 0.8 | % Inhibition (compound duplicates), K1 P. falciparum ([8]; Concn. 15 μM): 97.0%; % Inhibition (compound duplicates), K1 P. falciparum ([8]; Concn. 30 μM): 99.8%; % Inhibition (compound duplicates), K1 P. falciparum ([8]; Concn. 75 μM): 98.6%; % Inhibition (compound duplicates), K1 P. falciparum ([8]; Concn. 375 μM): 60.8%; % Inhibition (compound duplicates), K1 P. falciparum ([8]; Concn. 1875 μM): 46.1%; % Inhibition (compound duplicates), K1 P. falciparum ([8]; Concn. 09375 μM): 0%; % Inhibition (compound duplicates), K1 P. falciparum ([8]; Concn. 046875 μM): 0%; % Inhibition (compound duplicates), K1 P. falciparum ([8]; Concn. 0234375 μM): 0%; pIC50 [8, 9]: 5.62
Cc1ccncc1.Cc1ccncc1.F[B-](F)(F)F.F[B-](F)(F)F.F[B-](F)(F)F.F[B-](F)(F)F.O=C(CCCCC(=O)NNc1cc(-c2ccccn2)nc(-c2ccccn2)c1)NNc1cc(-c2ccccn2)nc(-c2ccccn2)c1.[Pt+2].[Pt+2] [V, Adipoyl-Linked-Bis[4-Picoline(4′-Hydrazino-2,2′:6′,2″-Terpyridine) Platinum(II)] Tetrafluoroborate] | 4.40 | 0.8 | 4.72 | 4.32 | 4.01 | – | 0% | 0% | 0% | 100% | 100% | 100% | 4.38 | 0.9 | 0% | 0% | 0% | 0% | 4.40 | 2.1 | –
CN(NC(=O)CCCCC(=O)NN(C)c1cc(-c2ccccn2)nc(-c2ccccn2)c1)c1cc(-c2ccccn2)nc(-c2ccccn2)c1.Cc1ccncc1.Cc1ccncc1.F[B-](F)(F)F.F[B-](F)(F)F.F[B-](F)(F)F.F[B-](F)(F)F.[Pt+2].[Pt+2] [W, Adipoyl-Linked-Bis[4-Picoline(4′-(1 -Methylhydrazino)-2,2′:6′,2″-Terpyridine) Platinum(II)] Tetrafluoroborate] | 4.24 | 1.2 | 4.77 | 4.32 | < 4.00 | – | 0% | 0% | 0% | 0% | 59.8% | 100% | 4.34 | 0.9 | 0% | 0% | 0% | 8.3% | 4.98 | 0.6 | –
hydroxyethanethiol-2,2′:6′,2″-terpyridine-platinum(II) [1,R═SCH2CH2OH, reference compound] | – | – | – | – | – | 83000 M⁻¹ | – | – | – | – | – | – | – | – | – | – | – | – | – | – | –
